From patent US20160374944A1, “COMPOSITIONS AND METHODS FOR TREATING AND PREVENTING CANCER BY TARGETING AND INHIBITING CANCER STEM CELLS” (priority 2011, published 2016)

Experiments:
Pancreatic CSCs [1] = assay: colony formation in soft agar; assay type: cell-based, human; conditions: 21 days
Experimental: (§1) (A) Pancreatic CSCs were seeded in suspension and treated with EGCG (0-60 μM) for 7 days. Pictures of spheroids formed in suspension were taken by a microscope. (B) Pancreatic CSCs were seeded in suspension and treated with EGCG (0-60 μM) for 7 days. At the end of incubation period, spheroids were collected, and dissociated with Accutase (Innovative Cell Technologies, Inc.). For secondary spheroids, cells were reseeded and treated with EGCG (0-60 μM) for 7 days. Cell viability was measured by trypan blue assay. […] Pancreatic CSCs were seeded in soft agar and treated with various doses of EGCG and incubated at […] for 21 days. At the end of incubation period, colonies were counted.
(§2) (A) Effects of EGCG and quercetin on spheroid and colony formation. […] CSCs were seeded in suspension and treated with EGCG (0-60 μM) with or without quercetin (20 μM) for 7 days. At the end of incubation period, all the spheroids were collected and resuspended. Cell viability was measured by trypan blue assay. […] Pancreatic CSCs were seeded in soft agar and treated with various doses of EGCG (0-60 μM) with or without quercetin (20 μM) and incubated at […] for 21 days. At the end of incubation period, colonies were counted. […] (B) Effects of EGCG and quercetin on invasion and migration. Upper panel, Matrigel invasion assay. CSCs were plated onto the Matrigel-coated membrane in the top chamber of the transwell and treated with EGCG (0-60 μM) with or without quercetin (20 μM) for 48 hrs. Cells invaded to the lower chambered were fixed with methanol, stained with crystal violet and counted. […] Lower panel, Transwell migration assay. Pancreatic CSCs were plated in the top chamber of the transwell and treated with EGCG (0-60 μM) with or without quercetin (20 μM) for 48 hrs. Cells migrated to the lower chambered were fixed with methanol, stained with crystal violet and counted. […] CSCs were seeded in suspension and treated with EGCG (0-60 μM) with or without quercetin (20 μM) for 7 days. At the end of incubation period, all the spheroids were collected.
At the end of incubation period, all the spheroids were collected and resuspended. Cell viability was measured by trypan blue assay. […] At the end of incubation period, colonies were counted.

Brain CSCs = assay: cell viability, trypan blue, Vi-CELL analyzer; assay type: cell-based; conditions: 48 h
Experimental: Brain CSCs were treated with resveratrol (0-20 μM), curcumin (0-20 μM), honokiol (0-20 μM) and diallyl trisulphide (0-10 μM) for 3 days, and cell viability was measured by staining with trypan blue using Vi-CELL analyzer (Beckman Counter).
Brain CSCs were treated with sulforaphane (0-20 μM), rottlerin (0-1 μM), EGCG (0-40 μM) and embelin (0-5 μM) for 48 h, and cell viability was measured by staining with trypan blue using Vi-CELL analyzer (Beckman Counter).
Brain CSCs were treated with resveratrol (0-20 μM), curcumin (0-20 μM) honokiol (0-20 μM), and diallyl trisulphide (0-10 μM) for 3 days and cell viability was measured by staining with trypan blue using Vi-CELL analyzer. The results of those studies are illustrated in FIG. 23.
Brain CSCs were treated with sulforaphane (0-20 μM), rottlerin (0-1 μM), EGCG (0-40 μM), and embelin (0-5 μM) for 48 hours and cell viability was measured by staining with trypan blue using Vi-CELL analyzer. The results of those studies are illustrated in FIG. 24.

Pancreatic CSCs [2] = assay: spheroid formation and cell viability in spheroids (trypan blue); assay type: cell-based, human; conditions: for cell viability in spheroids: EGCG 0-60 μM with or without quercetin 20 μM
Experimental: (A) Pancreatic CSCs were grown in six-well ultralow attachment plates (Corning Inc., Corning, N.Y.) at a density of 1,000 cells/ml in DMEM supplemented with 1% N2 Supplement (Invitrogen), 2% B27 Supplement (Invitrogen), 20 ng/ml human platelet growth factor (Sigma-Aldrich), 100 ng/ml EGF (Invitrogen) and 1% antibiotic-antimycotic (Invitrogen) at 37° C. in a humidified atmosphere of 95% air and 5% CO2 and treated with rottlerin (0-2 μM) for 7 days to obtain primary spheroids. At the end of incubation period, spheroids were collected, reseeded and treated with rottlerin for another week to obtain secondary spheroids. (B) Cell viability in spheroids was measured by trypan blue assay at the end of 7 and 14 days from the above experiment.
as §1
(A) Pancreatic CSCs were treated with EGCG (0-60 μM) for 36 h. At the end of incubation period, cells were harvested and the expression of Nanog, Sox-2, c-Myc and Oct-4 was measured by the q-RT-PCR. […] Pancreatic CSCs were transduced with either scrambled shRNA or Nanog shRNA expressing lentiviral vector (pLKO.1), and cell lysates were collected and western blot analysis was performed using anti-Nanog antibody (data not shown). CSC/scrambled and CSC/Nanog shRNA were seeded as described above and treated with EGCG (0-60 μM). After 7 days, spheroids were collected and cell suspensions were prepared and viable cells were counted by trypan blue assay.
as §2

Breast CSCs = assay: cell viability by XTT assay; assay type: cell-based; conditions: 3 days
Experimental: Breast CSCs were seeded in 96-well plate and treated with sulforaphane, diallyl trisulphide, resveratrol and curcumin for 3 days. At the end of incubation period, CSCs were harvested and cell viability was measured by XTT assay.
Breast CSCs were seeded in 96-well plate and treated with rottlerin, EGCG, embelin, and honokiol for 3 days. At the end of incubation period, breast CSCs were harvested and cell viability was measured by XTT assay.
(A-D) Breast CSCs were treated with PITC (0-20 μM), BSC, (0-20 μM), sulforaphane (0-20 μM) and honokiol (0-10 μM) for 3 days, and cell viability was measured by XTT assay.
Breast CSCs were treated with rottlerin (0-1 μM) for 3 days, and cell viability was measured by XTT assay.
Breast CSCs were seeded in 96-well plate and treated with sulforaphane, diallyl trisulphide, resveratrol, and curcumin for 3 days and cell viability was measured by XTT assay. The results of those studies are illustrated in FIG. 29.
Breast CSCs were seeded in 96-well plate and treated with Rottlerin, EGCG, embelin, and honokiol for 3 days and cell viability was measured by XTT assay. The results of those studies are illustrated in FIG. 30.

[3] = EGCG 0-60 μM with or without quercetin 20 μM

`O=C(O[C@@H]1Cc2c(O)cc(O)cc2O[C@@H]1c1cc(O)c(O)c(O)c1)c1cc(O)c(O)c(O)c1` [EGCG, epigallocatechin gallate] was tested, and the colony formation (Pancreatic CSCs [1]; [3]) was “inhibited cell viability in spheroids, colony formation, migration and invasion by CSCs in a dose-dependent manner”, the growth of colonies (Pancreatic CSCs [1]; EGCG) was “inhibited the growth of colonies in a dose-dependent manner” and the cell viability (Brain CSCs) was “inhibit cell viability”. The “CSC viability in spheroids” value (Pancreatic CSCs [2]; CSCs transduced with Nanog shRNA, EGCG 0-60 μM, 7 days) was “further enhanced the antiproliferative effects”, the “CSC viability in spheroids” value (Pancreatic CSCs [2]; CSCs transduced with scrambled shRNA, EGCG 0-60 μM, 7 days) was “inhibited CSC's viability in spheroids transduced with Nanog-scrambled shRNA in a dose-dependent manner” and the “cell viability in spheroids” value (Pancreatic CSCs [2]; 7 days) was “inhibited cell viability in spheroids, colony formation, migration and invasion by CSCs in a dose-dependent manner”. For the same molecule, the “growth (size) of spheroids in suspension” value (Pancreatic CSCs [2]; EGCG 0-60 μM, 7 days) was “inhibited the growth (size) of spheroids in suspension in a dose dependent manner”, the “CSC viability in primary and secondary spheroids” value (Pancreatic CSCs [2]; EGCG 0-60 μM, 7 days each, trypan blue) was “inhibited CSC's viability in primary and secondary spheroids in a dose-dependent manner” and the cell viability (Breast CSCs) was “inhibit cell viability”.
For `C[S+]([O-])CCCCN=C=S` (stereo not shown) [sulforaphane], the colony formation (Pancreatic CSCs [1]; SFN with or without quercetin) was “inhibited the cell viability and colony formation of pancreatic CSCs in a dose-dependent manner”, the cell viability (Brain CSCs) was “inhibit cell viability” and the cell viability (Breast CSCs) was “inhibit cell viability”.
For `O=c1c(O)c(-c2ccc(O)c(O)c2)oc2cc(O)cc(O)c12` [quercetin], the colony formation (Pancreatic CSCs [1]; [3]) was “effective alone”, the colony formation (Pancreatic CSCs [1]; SFN with or without quercetin) was “effective alone” and the “cell viability in spheroids” value (Pancreatic CSCs [2]; 7 days) was “effective alone”.
With `CC(=O)c1c(O)c(C)c(O)c(Cc2c(O)c3c(c(C(=O)/C=C/c4ccccc4)c2O)OC(C)(C)C=C3)c1O` [rottlerin] the cell viability (Brain CSCs) was “inhibit cell viability”, the “size of primary and secondary spheroids in suspension” value (Pancreatic CSCs [2]; rottlerin 0-2 μM, 7 and 14 days) was “inhibited the size” and the “cell viability of spheroids” value (Pancreatic CSCs [2]; rottlerin 0-2 μM, 7 and 14 days, trypan blue) was “inhibited”. For the same molecule, the cell viability (Breast CSCs) was “inhibits cell viability”.
